Here are results for 5 compounds from patent publication US10213464B2, “Method for enhancing engraftment of haematopoetic stem cells” (SCIPHARM SARL, priority 2011, dated 2019).

Experiment [1] deals with (Lin−, c-Kit+, Sca-1+) haematopoetic stem cells. The experiment can be described thus: [3H]cAMP accumulation assay in haematopoetic stem cells. In kind it is cell-based, mouse. The settings on record: for cAMP accumulation, compound per se: without forskolin, FIG. 4, FIG. 5. The protocol: Ten mice (C57BL/6) were sacrificed by cervical dislocation. The long bones of the hind limbs (i.e., femora and tibiae) were freed of muscle and connective tissue and flushed with RPMI medium using a syringe and 27½ G needle. The cell suspension was freed from visible connective tissue, collected and transferred to centrifuge tubes. Cells were harvested by centrifugation (1,200 rpm/˜100 g for 5 min) and resuspended in 3 mL erythrocyte lysis buffer (0.15 M NH4Cl, 10 mM KHCO3, 0.1 mM EDTA, pH adjusted to 7.2 to 7.4). The cell suspension was incubated for 2 min at 20° C. followed by 4 min on ice. Thereafter, RPMI (10 mL) was added and the cells were harvested by centrifugation and counted. […] Cells were resuspended in ice-cold PBS (phosphate buffered saline) containing 2% FCS (fetal calf serum) at a cell density of 2.5*10^8 cells/mL to which a cocktail of biotinylated antibodies (“Lineage Cell Depletion Kit” of Miltenyi Biotec) containing lineage-specific antibodies directed against CD5, CD45R (B220), CD11b, GR-1 (=Ly-6G/C), 7-4, and Ter-119 at a ratio of 0.1 mL antibody solution per 10^8 cells. Cells were incubated for 20 min on ice with the antibodies and pelleted by centrifugation. […] Thereafter, the sample was diluted in MACS-buffer (30 mL), the cells were collected by centrifugation and resuspended in 6 mL of MACS-buffer. This suspension was loaded onto prepacked LS columns, which contain ferromagnetic beads coated with a cell-compatible plastic material. Typically three columns were employed for (2 mL cells suspension/column). The flow-through contained the lineage marker-negative cells (Lin^− cells), while the lineage committed cells were retained on the column. Cells were pelleted by centrifugation and resuspended in […]. Lin^−/sca1^+-cells were incubated in 1 mL of stem cell medium (Stem Span SFEM, Stem Cell Tech #09650) containing 0.5 mg/L each, benzylpenicillin and streptomycin, 50 ng/mL each murine stem cell factor (mSCF), human Flt-3, hIL-11 50 ng/mL, m-IL3 (10 ng/mL) (all from PreProTech) 10 μg/mL adenosine deaminase (Roche) and [^3H]adenine (Perkin Elmer, 1 μCi/mL). The preincubation lasted for 4 h at 37° C. […] The cells were then pelleted (5 min at 100 g), the medium was removed and the pellet was lysed in ice-cold 2.5% perchloric acid (0.9 mL) containing 0.1 mM cAMP, held on ice for 1 h and neutralized with 4.2 M KOH (0.1 mL)). Lineage marker-positive cells were preincubated in a similar manner but the medium contained RMPI instead of serum-free stem cell medium. ATP and cAMP were separated by sequential chromatography on columns containing Dowex AG50-X8 and neutral alumina (12). The fact that differences can only be seen in the presence of forskolin is a technical problem—the signal is too low in the absence of forskolin-sensitization to see any differences between the different compounds, i.e. ilo-, beraprost and treprostinil. Sensitization means that cells are sensitized for receptor response as these cells contain extremely low cAMP.

For experiment [2], the system named is Lin+ haematopoetic cell fraction. The experiment in a line: [3H]cAMP accumulation assay in lineage marker-positive cells. In kind it is cell-based, mouse. The settings on record: data not shown. The protocol: Ten mice (C57BL/6) were sacrificed by cervical dislocation. The long bones of the hind limbs (i.e., femora and tibiae) were freed of muscle and connective tissue and flushed with RPMI medium using a syringe and 27½ G needle. The cell suspension was freed from visible connective tissue, collected and transferred to centrifuge tubes. Cells were harvested by centrifugation (1,200 rpm/˜100 g for 5 min) and resuspended in 3 mL erythrocyte lysis buffer (0.15 M NH4Cl, 10 mM KHCO3, 0.1 mM EDTA, pH adjusted to 7.2 to 7.4). The cell suspension was incubated for 2 min at 20° C. followed by 4 min on ice. Thereafter, RPMI (10 mL) was added and the cells were harvested by centrifugation and counted. The typical yield of cells was 3*10^7/mouse. Cells were resuspended in ice-cold PBS (phosphate buffered saline) containing 2% FCS (fetal calf serum) at a cell density of 2.5*10^8 cells/mL to which a cocktail of biotinylated antibodies (“Lineage Cell Depletion Kit” of Miltenyi Biotec) containing lineage-specific antibodies directed against CD5, CD45R (B220), CD11b, GR-1 (=Ly-6G/C), 7-4, and Ter-119 at a ratio of 0.1 mL antibody solution per 10^8 cells. Cells were incubated for 20 min on ice with the antibodies and pelleted by centrifugation. […]

Experiment [3] relates to Lin− (Sca1+ and c-Kit+) haematopoetic stem cells. The experiment in a line: Bone marrow transplantation: reconstitution of bone marrow in lethally irradiated mice by ex vivo pretreated stem cells. The settings on record: FIG. 6.
A further experiment concerns the target T1, EP3-receptors (Homo sapiens, UniProt P43115).
T1 sequence (P43115 1-390): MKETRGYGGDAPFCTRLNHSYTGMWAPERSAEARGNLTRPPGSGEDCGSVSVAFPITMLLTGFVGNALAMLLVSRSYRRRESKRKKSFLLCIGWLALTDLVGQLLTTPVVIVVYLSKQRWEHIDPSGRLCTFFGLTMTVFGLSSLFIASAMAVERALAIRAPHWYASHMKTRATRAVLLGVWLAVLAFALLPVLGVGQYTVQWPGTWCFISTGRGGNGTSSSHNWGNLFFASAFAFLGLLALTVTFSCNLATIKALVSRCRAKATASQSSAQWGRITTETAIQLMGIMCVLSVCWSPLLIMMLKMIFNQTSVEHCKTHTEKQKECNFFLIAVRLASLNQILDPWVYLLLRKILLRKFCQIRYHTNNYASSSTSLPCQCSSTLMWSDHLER
The note with it: Gi-coupled, inhibit cAMP accumulation; cited from earlier work.

The next experiment concerns the target EP2-receptors (Homo sapiens, UniProt P43116). The settings on record: reference 10; cited from earlier work.
For a further experiment, the target named is EP4-receptors (Homo sapiens, UniProt P35408). The settings on record: reference 10; cited from earlier work.
EP4-receptors, sequence (P35408 whole entry): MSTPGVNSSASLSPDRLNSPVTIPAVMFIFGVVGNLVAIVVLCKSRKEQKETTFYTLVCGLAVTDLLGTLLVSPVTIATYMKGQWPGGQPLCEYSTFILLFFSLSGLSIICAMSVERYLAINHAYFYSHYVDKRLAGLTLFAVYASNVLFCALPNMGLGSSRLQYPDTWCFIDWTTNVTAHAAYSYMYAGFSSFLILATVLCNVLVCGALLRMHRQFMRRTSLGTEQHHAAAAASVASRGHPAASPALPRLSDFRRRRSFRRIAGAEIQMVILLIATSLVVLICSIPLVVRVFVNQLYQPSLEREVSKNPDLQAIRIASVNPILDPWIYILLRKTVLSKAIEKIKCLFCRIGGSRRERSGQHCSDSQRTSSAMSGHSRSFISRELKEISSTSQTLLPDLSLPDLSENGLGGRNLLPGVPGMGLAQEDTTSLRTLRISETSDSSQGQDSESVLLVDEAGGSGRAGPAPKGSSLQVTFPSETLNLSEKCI
Experiment [4] relates to haematopoetic stem cells. The settings on record: references 7, 8; cited from earlier work.
Experiment [5] concerns haematopoetic stem cells. The note with it: in vivo; cited from earlier work.

EP2-receptors, sequence (P43116 whole entry): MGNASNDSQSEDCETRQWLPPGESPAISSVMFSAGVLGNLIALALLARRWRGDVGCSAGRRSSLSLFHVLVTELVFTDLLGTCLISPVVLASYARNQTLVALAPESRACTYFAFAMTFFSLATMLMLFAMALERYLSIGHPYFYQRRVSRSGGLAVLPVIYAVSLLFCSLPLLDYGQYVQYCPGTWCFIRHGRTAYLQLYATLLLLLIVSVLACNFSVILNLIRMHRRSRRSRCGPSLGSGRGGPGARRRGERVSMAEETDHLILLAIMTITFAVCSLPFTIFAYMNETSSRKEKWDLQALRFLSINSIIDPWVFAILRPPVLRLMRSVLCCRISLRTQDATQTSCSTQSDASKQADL

Consider `CC#CCC(C)C(O)C=CC1C(O)CC2Oc3c(CCCC(=O)O)cccc3C21` (stereo not shown) [Beraprost, 2,3,3a,8b-tetrahydro-2-hydroxy-1-(3-hydroxy-4-methyl-1-octen-6-ynyl)-1H-cyclopenta(b)benzofuran-5-butanoic acid], for which the “cAMP accumulation, compound per se” value in experiment [1] (stimulation 1 h) is “modest accumulation of cAMP”.
`CC#CCC(C)[C@H](O)/C=C/[C@@H]1[C@H]2C/C(=C/CCCC(=O)O)C[C@H]2C[C@H]1O` (stereo partly drawn) [Iloprost, 5-{(E)-(1S,5S,6R,7R)-7-hydroxy-6[(E)-(3S, 4RS)-3-hydroxy-4-methyl-1-octen-6-inyl]-bi-cyclo[3.3.0]octan-3-ylidene}pentanoic acid]: the “cAMP accumulation, compound per se” value in experiment [1] (stimulation 1 h) was “modest accumulation of cAMP”.
For `CCCCC[C@H](O)CC[C@@H]1[C@H]2Cc3cccc(OCC(=O)[O-])c3C[C@H]2C[C@H]1O.[Na+]` [Treprostinil, (1R,2R,3aS,9aS)-[[2,3,3a,4,9,9a-hexahydro-2-hydroxy-1-[(3S)-3-hydroxyoctyl]-1H-benz[f]inden-5-yl]oxy]acetic acid monosodium salt], the “concentration range of concentration-dependent accumulation of cAMP” value in experiment [1] (FIG. 5) lay within 0.1 to 10 µM. Besides, the EC50 in experiment [1] (Mus musculus, concentration-response curve, FIG. 5, read-out: estimated EC50 of cAMP accumulation) is around 0.3 µM. The “increase in cAMP levels when combined with forskolin” value in experiment [1] (combined with forskolin, stimulation 1 h, FIG. 4) was “exceeded that caused by the IP-(I prostanoid) receptor-specific compounds Iloprost and Beraprost”. Also, the “cAMP accumulation, compound per se” value in experiment [1] (stimulation 1 h, listed as Trepostinil, monosodium salt) is listed as “increase of cAMP is significant”; in experiment [1] (stimulation 1 h, monosodium salt), “modest accumulation of cAMP”. Besides, in experiment [2], the “cAMP levels in Lin+ cells” value is “failed to increase cAMP levels”. Also, in experiment [3] (day 60 after injection of 3*10^5 cells pretreated ex vivo with 10 μM for 1 h at 37° C., versus vehicle-treated cells), the “level of circulating white blood cells” value is listed as “significantly higher levels of circulating white blood cells”. In addition, in experiment [3] (ex vivo pretreatment, white blood cell count), the “effectiveness compared with positive control cholera toxin” value is recorded as “as effective as the positive control cholera toxin”. For the same compound, the “agonism at EP3-receptors” value on EP3-receptors is “low affinity agonist”. The “stimulation of EP2-receptors” value on EP2-receptors is recorded as “stimulates”. Besides, the “stimulation of EP4-receptors” value at EP4-receptors is “stimulates”.
`CCCCC(C)(C)[C@H](O)/C=C/[C@H]1[C@H](O)CC(=O)[C@@H]1C/C=C\CCCC(=O)O` [dimethyl-PGE2]: the engraftment after pretreatment entry with haematopoetic stem cells [4] was “enhances their engraftment”. At EP3-receptors, the “agonism at EP3-receptors” value is “full agonist”.
As to cholera toxin, the “(Lin−) precursor cells in the bone marrow after pretreatment” value in the experiment on haematopoetic stem cells [5] was “about twice as many”.
